Measured values published in paper PMC5900554, “Fragment-Based Approach to Targeting Inosine-5′-monophosphate Dehydrogenase (IMPDH) from Mycobacterium tuberculosis” (Journal of Medicinal Chemistry, 2018).
Read-outs that look alike come from different tables or passages of the source.

Columns and labels:
Mth IMPDH ΔCBS [1] = biological target: T1, Mth IMPDH ΔCBS (Mycolicibacterium thermoresistibile, UniProt G7CNL4, R236G); experiment: Inhibition constants (Ki) and mode of inhibition against Mth IMPDH ΔCBS with respect to IMP and NAD+; type: biochemical, Mycobacterium thermoresistible; parameters: key to Pattern of inhibition with respect to IMP / Pattern of inhibition with respect to NAD: UC: Uncompetitive inhibition; details: for Pattern of inhibition with respect to IMP / Pattern of inhibition with respect to NAD: UC = uncompetitive; for Pattern of inhibition with respect to NAD / NAD αKi: with respect to NAD+; for NAD αKi: constant saturating IMP (1 mM); for Pattern of inhibition with respect to IMP / IMP αKi: with respect to IMP; for IMP αKi: fixed saturating NAD+ ([…])
Protocol: The inhibition constant [Ki] with respect to both substrates IMP and NAD^+ was determined by assaying various concentrations of each inhibitor with five different concentrations of substrate and a fixed saturating concentration of the cosubstrate.
(§1) The initial velocities at various inhibitor concentrations were determined based on the slope in the linear part of each reaction containing the inhibitor and the uninhibited reaction. To determine the inhibition constant (Ki values), the initial rate data versus substrate concentration at different inhibitor concentrations were fit using Prism software (GraphPad) to equations for uncompetitive or mixed inhibition. For each inhibitor concentration, the reciprocal of enzyme reaction velocity versus the reciprocal of the substrate concentration was plotted in a Lineweaver–Burk plot to determine the pattern of inhibition.

full-length Mtb IMPDH = full-length Mtb IMPDH (Mycobacterium tuberculosis, UniProt P9WKI7); experiment: Inhibition constants toward full-length Mtb IMPDH; type: biochemical
Protocol: as §1

Mth IMPDH ΔCBS [2] = biological target: T1, Mth IMPDH ΔCBS; type: biochemical, Mycobacterium thermoresistible; details: SAR statement in text
[3] = IMP as the substrate, read-out: Ki with IMP as the substrate
[4] = NAD as the substrate, read-out: Ki with NAD as the substrate

Structure (SMILES)	Pattern of inhibition with respect to IMP (Mth IMPDH ΔCBS [1])	Pattern of inhibition with respect to NAD (Mth IMPDH ΔCBS [1])	NAD αKi (Mth IMPDH ΔCBS [1]) [µM]	Ki (full-length Mtb IMPDH; [3]) [µM]	Ki (full-length Mtb IMPDH; [4]) [µM]	IMP αKi (Mth IMPDH ΔCBS [1]) [µM]	Mth IMPDH ΔCBS inhibitory activity (in words) (Mth IMPDH ΔCBS [2])
COc1ccc(OC(C)C(=O)Nc2ccc(I)cc2)cc1 (centres unmarked) [Compound 1, reference compound]	uncompetitive and UC	uncompetitive and UC	0.55 ± 0.02	–	–	–	–
Brc1ccc(-c2c[nH]cn2)cc1 [Compound 2]	uncompetitive and UC	uncompetitive and UC	512 ± 23	572 ± 14	534 ± 18	609 ± 3	–
Oc1ccc2ccc(O)cc2c1 [Compound 11]	uncompetitive and UC	UC	310 ± 30	–	–	361 ± 53	–
O=C(O)c1cc2sccc2s1 [Compound 14]	Mixed	UC	262 ± 39	–	–	238 ± 6	–
Cc1ccc(-c2nc(C(=O)O)cs2)cc1 [Compound 16]	Mixed	UC	525 ± 64	–	–	–	–
CC(=O)Nc1cc(C)ccc1O [Compound 18]	uncompetitive and UC	UC	452 ± 26	–	–	554 ± 70	–
CC1(C)Cc2cccc(CO)c2O1 [Compound 19]	Mixed	UC	355 ± 47	–	–	126 ± 34	–
CC(C)NC(=O)CSc1nc(-c2ccccc2)c[nH]1 [Compound 26, N-Isopropyl-2-((4-phenyl-1H-imidazol-2-yl)thio)acetamide]	–	–	–	–	–	–	complete loss of activity
O=C(O)CSc1nc(-c2ccc(Br)cc2)c[nH]1 [Compound 27, 2-((4-(4-Bromophenyl)-1H-imidazol-2-yl)thio)acetic Acid]	–	–	–	–	–	–	complete loss in activity
O=C(O)CSc1nc(-c2ccccc2)c[nH]1 [Compound 28, 2-((4-Phenyl-1H-imidazol-2-yl)thio)acetic Acid]	–	–	–	–	–	–	complete loss in activity
CC(Oc1ccc(-c2cn(C)cn2)cc1)C(=O)Nc1nc(-c2ccc(Br)cc2)c[nH]1 (centres unmarked) [Compound 31, N-(4-(4-Bromophenyl)-1H-imidazol-2-yl)-2-(4-(1-methyl-1H-imidazol-4-yl)phenoxy)propanamide]	uncompetitive	uncompetitive	0.20 ± 0.01	0.61 ± 0.05	0.39 ± 0.02	0.30 ± 0.02	–
CC(Oc1ccc(-c2cn(C)cn2)cc1)C(=O)Nc1ccccc1 (centres unmarked) [Compound 34, 2-(4-(1-Methyl-1H-imidazol-4-yl)phenoxy)-N-phenylpropanamide]	–	–	–	–	–	–	complete loss of activity
